# Legend:
# Ugt1a7 mRNA = test: qRT-PCR of Ugt1a7 mRNA in liver and intestines of rats after multiple doses; assay type: in vivo
# Protocol: The qRT-PCR analysis was used to measure mRNA levels of Ugt1a7 in the liver and intestines of rats. Total RNA was isolated from frozen liver and intestine samples using the TRNzol Universal as per the manufacturer’s instructions. A Bio Tek Epoch (Bio Tek Instruments, Inc., Winooski, VT, USA) was used to quantify the concentration and purity of the total RNA based on the ratio of the absorbance between 260 and 280 nm. RNA samples of 1 μg of were converted to complementary (cDNA) using the FastKing RT Kit. The real-time PCR assays were performed using a two-step amplification method according to the manufacturer’s recommendations in a SLAN-96S Real-Time PCR system (Shanghai Hongshi Medical Technology Co., Ltd. Shanghai, China). The PCR cycling conditions were as follows: 95 °C for 15 min, followed by 40 cycles of 95 °C for 10 s and 60 °C for 32 s. The sequences of primers are listed in Table 6. β-actin was used as an internal control.
# [1] = Stability of QC samples in rat plasma under different storage and processing conditions; assay type: physicochemical; conditions: for Accuracy (RE%) / Mean ± SD concentration found: rat plasma, n = 6; for stability in rat plasma: autosampler for 6 h, room temperature for 4 h, three cycles of freezing and thawing (−80 °C to room temperature)
# Protocol: The stability of QC samples in rat plasma was tested in six replicates at three concentration levels exposed to different storage and processing conditions: autosampler for 6 h after processing, room temperature for 4 h, −80 °C for 30 days, three freeze–thaw cycles (−80 °C to room temperature).
# CYP450 = conditions: cited from earlier work
# [2] = cited from earlier work
# UGT1A1 = conditions: cited from earlier work
# UGT1A9 = conditions: cited from earlier work
# [3] = Pharmacokinetic interaction study between SOR and DAPA in rats (oral gavage, plasma by UPLC-MS/MS); conditions: for AUC(0-t) / AUC(0-inf) / CL/F / Cmax / MRT last / MRT inf / Tmax / Vd/F / half-life: n = 6; for AUC(0-inf): AUC0–∞; for CL/F: CLz/F; for MRT last: MRT0-t; for MRT inf: MRT0–∞; for Vd/F: Vz/F; for half-life: t1/2z;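 as to all read-outs here: parameters derived by non-compartmental analysis of plasma concentration–time data, with analyte levels measured by UPLC-MS/MS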
# Protocol: Analytes were quantified using Ultra-Performance Liquid Chromatography-Tandem Mass Spectrometry (UPLC-MS/MS) which consisted of an LC-30A ultra-performance liquid chromatography (Shimadzu, Kyoto, Japan) and Sciex Triple Quad 5500 tandem triple quadrupole mass spectrometer (AB Sciex, Framingham, MA, USA). Chromatographic separation was performed using an XSelect HSS T3 column (2.1 mm × 100 mm, 2.5 μm, Waters, Milford, MA, USA) at 40 °C by gradient elution. The mobile phase consisted of water with 0.1% formic acid and 5 mM ammonium acetate (phase A) and acetonitrile (phase B), and the gradient elution procedure was as follows: 0–0.5 min, 60–90% B; 0.5–3 min, 90% B; 3–3.1 min, 90–60% B; and 3.1–4 min, 60% B. The injection volume was 5 μL.
# A volume of 25 µL plasma samples, 2.5 µL IS mixed working solution, and 150 μL methyl tertbutyl ether was added, then vortex-mixed for 1 min. The mixture was centrifuged at 12,000× g for 10 min. The organic phase was transferred to a new centrifuged tube and evaporated to dryness under a stream of nitrogen at room temperature. The dried samples were redissolved with 100 μL of 50% acetonitrile and briefly vortexed for 1 min, then 5 μL was injected into the UPLC-MS/MS for analysis.
# Adult male Sprague-Dawley (SD) rats weighing 230 ± 30 g were provided by Beijing Weitong Lihua Experimental Animal Technology Co., Ltd. (Beijing, China). The license number is SCXK (Beijing) 2016–0011. All experimental procedures for this study were reviewed and approved by the Animal Ethics Committee of Hebei General Hospital (Shijiazhuang, China) (No. 2022072). The rats were adapted to the standard laboratory conditions (12 h dark–light cycle, temperature at approximately 23 ± 2 °C, relative humidity of 50 ± 10%) for a week. All the rats were given access to water freely, while the diet was prohibited for 12 h before administration.
# Twenty-four healthy rats were randomly divided into four groups (n = 6 in each group). […] Blood samples were then centrifuged at 3500× g for 10 min at 4 °C, and the supernatant was transferred to another centrifuged tube, then stored in a −80 °C freezer until analysis.
# DAS 2.1.1 Software (Mathematical Pharmacology Professional Committee of China, Shanghai, China) was used to calculate pharmacokinetic parameters with non-compartmental analysis. The pharmacokinetic analysis included AUC (area under the concentration–time curve), Cmax (maximum plasma concentration), Tmax (time to maximum plasma concentration), t1/2 (time required to eliminate half of plasma drug concentration), CLz/F (clearance of drug plasma volume per time unit), Vz/F (apparent volume of distribution), and MRT (mean residence time). SPSS 25.0 statistical software (SPSS Inc., Chicago, IL, USA) was used to statistically analyze the above-mentioned pharmacokinetic parameters. Statistical comparisons of the experimental and control groups were conducted using a nonparametric rank-sum test or t-test, depending on the data type; p < 0.05 was considered statistically significant.
# [4] = set-up: method as in PMID 27561659; conditions: following oral administration of SOR; cited from earlier work
# [5] = set-up: method as in earlier work; conditions: co-administration of neomycin; cited from earlier work
# [6] = with metformin; cited from earlier work
# human UGT enzymes = tested on: human UGT enzymes; set-up: method as in PMID 28065859; conditions: in vitro studies; cited from earlier work
# [7] = Autosampler for 6 h, nominal 15 ng/mL
# [8] = Autosampler for 6 h, nominal 800 ng/mL
# [9] = Autosampler for 6 h, nominal 1500 ng/mL
# [10] = Freeze–thaw stability for three times, nominal 15 ng/mL
# [11] = Freeze–thaw stability for three times, nominal 800 ng/mL
# [12] = Freeze–thaw stability for three times, nominal 1500 ng/mL
# [13] = Room temperature for 4 h, nominal 15 ng/mL
# [14] = Room temperature for 4 h, nominal 800 ng/mL
# [15] = Room temperature for 4 h, nominal 1500 ng/mL
# [16] = −80 °C for 30 days, nominal 15 ng/mL
# [17] = −80 °C for 30 days, nominal 800 ng/mL
# [18] = −80 °C for 30 days, nominal 1500 ng/mL
# [19] = co-administered with multiple doses of SOR vs control group (DAPA alone)
# [20] = male, Sprague-Dawley, rat, in vivo, po, 1 mg/kg, DAPA 1 mg/kg oral with multiple-doses SOR (100 mg/kg, seven days)
# [21] = male, Sprague-Dawley, rat, in vivo, po, 1 mg/kg, DAPA 1 mg/kg oral, alone
# [22] = Autosampler for 6 h, nominal 10 ng/mL
# [23] = Autosampler for 6 h, nominal 3750 ng/mL
# [24] = Freeze–thaw stability for three times, nominal 10 ng/mL
# [25] = Freeze–thaw stability for three times, nominal 3750 ng/mL
# [26] = Room temperature for 4 h, nominal 10 ng/mL
# [27] = Room temperature for 4 h, nominal 3750 ng/mL
# [28] = −80 °C for 30 days, nominal 10 ng/mL
# [29] = −80 °C for 30 days, nominal 3750 ng/mL
# [30] = male, Sprague-Dawley, rat, plasma, po, 100 mg/kg, SOR 100 mg/kg oral, alone
# [31] = with multiple doses of DAPA vs control group (SOR alone)
structure (smiles),measurement,setting,value
"CCOc1ccc(Cc2cc([C@@H]3O[C@H](CO)[C@@H](O)[C@H](O)[C@H]3O)ccc2Cl)cc1 [DAPA, Dapagliflozin]",effect on the expression of Ugt1a7 in the intestines,"Ugt1a7 mRNA; DAPA administered to rats for seven consecutive days (1 mg/kg), intestines",no significant effect
same,inhibition of mRNA expression of Ugt1a7 in the liver,"Ugt1a7 mRNA; DAPA administered to rats for seven consecutive days (1 mg/kg), liver",59.31%
same,Accuracy (RE%),[1]; [7],−0.4%
same,Mean ± SD concentration found,[1]; [7],14.93 ± 0.83 ng/mL
same,Accuracy (RE%),[1]; [8],3.8%
same,Mean ± SD concentration found,[1]; [8],830.00 ± 15.05 ng/mL
same,Accuracy (RE%),[1]; [9],9.6%
same,Mean ± SD concentration found,[1]; [9],1643.33 ± 32.66 ng/mL
same,Accuracy (RE%),[1]; [10],1.2%
same,Mean ± SD concentration found,[1]; [10],15.18 ± 0.87 ng/mL
same,Accuracy (RE%),[1]; [11],−3.8%
same,Mean ± SD concentration found,[1]; [11],769.83 ± 44.56 ng/mL
same,Accuracy (RE%),[1]; [12],−7.4%
same,Mean ± SD concentration found,[1]; [12],1388.33 ± 54.19 ng/mL
same,Accuracy (RE%),[1]; [13],−0.7%
same,Mean ± SD concentration found,[1]; [13],14.90 ± 0.49 ng/mL
same,Accuracy (RE%),[1]; [14],11.1%
same,Mean ± SD concentration found,[1]; [14],889.00 ± 15.43 ng/mL
same,Accuracy (RE%),[1]; [15],10.2%
same,Mean ± SD concentration found,[1]; [15],1653.33 ± 21.60 ng/mL
same,stability in rat plasma,[1]; −80 °C for 30 days,stable
same,Accuracy (RE%),[1]; [16],2.9%
same,Mean ± SD concentration found,[1]; [16],15.43 ± 1.07 ng/mL
same,Accuracy (RE%),[1]; [17],2.8%
same,Mean ± SD concentration found,[1]; [17],822.17 ± 21.66 ng/mL
same,Accuracy (RE%),[1]; [18],−1.1%
same,Mean ± SD concentration found,[1]; [18],1483.33 ± 19.66 ng/mL
same,share metabolized by CYP450,CYP450,< 10%
same,increase of exposure of DAPA,[2]; with mefenamic acid (a strong UGT1A9 inhibitor),51%
same,reduction of exposure of DAPA,[2]; with rifampin (a pleiotropic enzyme inducer),22%
same,UGT1A1 inhibitor strength,UGT1A1,moderate
same,UGT1A9 inhibitor strength,UGT1A9,moderate
same,decrease of CLz/F of DAPA,[3]; [19],40%
same,elevation of MRT0–t of DAPA,[3]; [19],1.48 fold
same,elevation of MRT0–∞ of DAPA,[3]; [19],1.80 fold
same,elevation of Tmax of DAPA,[3]; [19],1.43 fold
same,increase of AUC0–t of DAPA,[3]; [19],1.66 fold
same,increase of AUC0–∞ of DAPA,[3]; [19],1.80 fold
same,AUC(0-t),"[3]; male, Sprague-Dawley, rat, in vivo, po, 1 mg/kg, AUC0-t, DAPA 1 mg/kg oral with multiple-doses SOR (100 mg/kg, seven days)",8570 ± 2860 ng·h/mL
same,AUC(0-t),"[3]; male, Sprague-Dawley, rat, in vivo, po, 1 mg/kg, AUC0-t, DAPA 1 mg/kg oral, alone",5160 ± 1030 ng·h/mL
same,AUC(0-inf),[3]; [20],9300 ± 4260 ng·h/mL
same,AUC(0-inf),[3]; [21],5180 ± 1050 ng·h/mL
same,CL/F,[3]; [20],2 mL/min/kg
same,CL/F,[3]; [21],3.33 mL/min/kg
same,Cmax,"[3]; male, Sprague-Dawley, rat, in vivo, po, 1 mg/kg, Cmax, DAPA 1 mg/kg oral with multiple-doses SOR (100 mg/kg, seven days)",871 ± 167 ng/mL
same,Cmax,"[3]; male, Sprague-Dawley, rat, in vivo, po, 1 mg/kg, Cmax, DAPA 1 mg/kg oral, alone",846 ± 76.4 ng/mL
same,MRT last,[3]; [20],9.01 ± 1.22 h
same,MRT last,[3]; [21],6.1 ± 0.96 h
same,MRT inf,[3]; [20],11.2 ± 4.86 h
same,MRT inf,[3]; [21],6.25 ± 1.07 h
same,Tmax,[3]; [20],0.83 ± 0.41 h
same,Tmax,[3]; [21],0.58 ± 0.2 h
same,Vd/F,[3]; [20],1.12 ± 0.1 L/kg
same,Vd/F,[3]; [21],1.27 ± 0.19 L/kg
same,half-life,[3]; [20],7.95 ± 4.03 h
same,half-life,[3]; [21],4.51 ± 0.67 h
"CNC(=O)c1cc(Oc2ccc(NC(=O)Nc3ccc(Cl)c(C(F)(F)F)c3)cc2)ccn1 [SOR, Sorafenib]",downregulation of mRNA expression of Ugt1a7 in the intestines,"Ugt1a7 mRNA; multiple doses of SOR (100 mg/kg, seven days), rat intestines",~32.09%
same,downregulation of mRNA expression of Ugt1a7 in the liver,"Ugt1a7 mRNA; multiple doses of SOR (100 mg/kg, seven days), rat liver",~32.50%
same,Accuracy (RE%),[1]; [22],0.9%
same,Mean ± SD concentration found,[1]; [22],10.09 ± 0.53 ng/mL
same,Accuracy (RE%),[1]; [9],2.6%
same,Mean ± SD concentration found,[1]; [9],1538.33 ± 36.56 ng/mL
same,Accuracy (RE%),[1]; [23],−0.9%
same,Mean ± SD concentration found,[1]; [23],3716.67 ± 66.23 ng/mL
same,Accuracy (RE%),[1]; [24],−1.7%
same,Mean ± SD concentration found,[1]; [24],9.84 ± 0.34 ng/mL
same,Accuracy (RE%),[1]; [12],3.3%
same,Mean ± SD concentration found,[1]; [12],1550.00 ± 12.65 ng/mL
same,Accuracy (RE%),[1]; [25],−4.0%
same,Mean ± SD concentration found,[1]; [25],3601.67 ± 164.00 ng/mL
same,Accuracy (RE%),[1]; [26],6.8%
same,Mean ± SD concentration found,[1]; [26],10.68 ± 0.55 ng/mL
same,Accuracy (RE%),[1]; [15],−3.4%
same,Mean ± SD concentration found,[1]; [15],1448.33 ± 18.35 ng/mL
same,Accuracy (RE%),[1]; [27],−5.8%
same,Mean ± SD concentration found,[1]; [27],3533.33 ± 66.23 ng/mL
same,stability in rat plasma,[1]; −80 °C for 30 days,stable
same,Accuracy (RE%),[1]; [28],2.0%
same,Mean ± SD concentration found,[1]; [28],10.20 ± 0.39 ng/mL
same,Accuracy (RE%),[1]; [18],2.2%
same,Mean ± SD concentration found,[1]; [18],1533 ± 40.33 ng/mL
same,Accuracy (RE%),[1]; [29],−4.2%
same,Mean ± SD concentration found,[1]; [29],3593.33 ± 142.22 ng/mL
same,time at which maximum plasma concentrations are reached,[4],approximately 3 h
same,decrease of SOR exposure,[5],54%
same,change of exposure to SOR,[6],halved
same,inhibition of human UGT enzymes,human UGT enzymes,one of the most powerful inhibitors
same,AUC(0-t),"[3]; SOR 100 mg/kg oral, alone","62,701.33 ± 16,697.65 μg/L × h"
same,Cmax,"[3]; SOR 100 mg/kg oral, alone",1547.87 ± 136.94 ng/mL
same,shape of pharmacokinetic curve of SOR,[3]; after 72 h of SOR gavage,second absorption peak
same,AUC(0-inf),[3]; [30],63700 ng·h/mL
same,CL/F,[3]; [30],28.2 mL/min/kg
same,MRT last,[3]; [30],47.1 ± 9.48 h
same,MRT inf,[3]; [30],48.7 ± 10.5 h
same,Tmax,[3]; [30],7.5 ± 0.55 h
same,Vd/F,[3]; [30],37.4 ± 9.78 L/kg
same,half-life,[3]; [30],17.5 ± 5.65 h
same,"change of t1/2z, MRT0–t and MRT0–∞ of SOR between the groups",[3]; with multiple doses of DAPA vs SOR alone,no statistically significant changes
same,decrease of AUC0–t of SOR,[3]; [31],50.5%
same,decrease of AUC0–∞ of SOR,[3]; [31],46.2%
same,decrease of Cmax of SOR,[3]; [31],41.6%

# Source: article PMC9571628 (Molecules, 2022)
